The nature of assay [1]: 4-14C-cholesterol appearance in thoracic duct lymph of rats after oral administration. Format: in vivo, female albino rats (Charles River). The settings on record: 100 mg orally, female albino rats, vs Na-TC control. Here is the method:
The lowering of the cholesterol levels in mammals by the administration of the compound of formula I-B can be seen from the fact that when 100 mg of 7-(3alpha, 12alpha-dihydroxy-5beta-pregnane-20-yl)-3,5-heptadienoic acid was administered orally to female albino rats, the cholesterol level in the lymph was decreased after administration by 60% over the first 8 hours and 91% over the next 9 to 24 hr. period after administration as compared to the control. In this procedure, female albino rats (Charles River), weighing 300 ± 10 g were kept on a Purina chow diet ad libitum until the time of operation. […] This preparation enabled the production of lymph at a constant rate, the infusion of a bile salt, and the simultaneous collection of bile. All animals received, after operation, a continuous duodenal infusion of sodium taurocholate (Na-TC) in 0.85% NaCl. One day after operation, the rats were given, by stomach intubation, an emulsion containing about 4% triolein, 20 μC of 4-^14 C-cholesterol (Specific Activity 61.7 mC/mM, 159 μ C/mg), 2 mg of cholesterol, in addition to protein, carbohydrate, and saline. Both the Na-TC and the cholesterol carrier employed gave a single spot on either thin layer or glass fiber chromatograph so no further purification was attempted. […] An aliquot of the lipid extract was placed on a small piece of glass fiber paper and counted. […]

The next assay deals with T1, rat pancreatic lipase (Rattus norvegicus, UniProt P27657).
T1 sequence (P27657 17-465): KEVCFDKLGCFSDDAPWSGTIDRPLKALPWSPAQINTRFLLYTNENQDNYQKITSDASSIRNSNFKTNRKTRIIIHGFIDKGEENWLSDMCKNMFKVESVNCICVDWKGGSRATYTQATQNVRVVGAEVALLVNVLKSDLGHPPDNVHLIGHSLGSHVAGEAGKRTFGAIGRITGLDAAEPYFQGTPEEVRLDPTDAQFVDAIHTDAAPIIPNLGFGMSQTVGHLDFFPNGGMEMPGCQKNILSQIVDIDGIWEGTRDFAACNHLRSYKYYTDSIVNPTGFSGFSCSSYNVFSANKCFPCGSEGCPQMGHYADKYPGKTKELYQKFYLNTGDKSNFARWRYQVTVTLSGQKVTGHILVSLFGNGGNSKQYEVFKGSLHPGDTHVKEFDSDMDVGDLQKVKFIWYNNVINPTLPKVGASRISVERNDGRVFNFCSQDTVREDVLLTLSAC
As to the kind of experiment: Inhibition of rat pancreatic lipase activity in vitro. Format: biochemical. The settings on record: 14C-triolein emulsion, pH 8.6, 20 min. at 37° C. The protocol: Dietary long-chain triglycerides must be hydrolyzed by pancreatic lipase in the duodenum before absorption can occur. […] The capacity of compounds of formula I to inhibit rat pancreatic lipase in vitro is seen by the action of the following compounds:
The ability of compounds to inhibit rat pancreatic lipase is determined by analyzing the nmoles of free fatty acid [oleic acid] released from [^14 C]-triolein. Compounds of A and B are added to an emulsion consisting of: 200,000 dmp ^14 C-triolein, 7.5 mg triolein, 0.75 mg sodium taurocholate, 15 mg bovine serum albumin and 0.9 ml 0.2 M tris-HCl - 0.15 M NaCl, pH 8.6, per assay. Water and/or pancreatic lipase is added to make an assay volume of 1.0 ml. The emulsion is incubated for 20 min. at 37° C in a shaking water bath. The reaction is stopped by the addition of isopropanol; H2 SO4 (40:1). The lipids are extracted twice with 3 ml volumes of hexane. The liberated fatty acids are extracted with 2 ml of 0.1 N aqueous KOH in 50% methanol. A 1 ml aliquot of the KOH layer is paced in a scintillation vial with 10 ml of 2,5-bis-2-(5-tertiarybutyl benzoxazolyl)thiophene. The radioactivity is determined by a scintillation counter. Data are expressed as nmoles free fatty acid [oleic acid] releated.

Consider `C[C@H](C/C=C/C=C/CC(=O)O)[C@H]1CC[C@H]2[C@@H]3CC[C@@H]4C[C@H](O)CC[C@]4(C)[C@H]3C[C@H](O)[C@]12C` [Compound A, 7(3α,12α-dihydroxy-5β-pregnane-20-yl)-3,5-heptadienoic acid], for which the “decrease of cholesterol level in the lymph as compared to the control” value is given as 91% in assay [1] (9 to 24 hr. period after administration) and 60% in assay [1] (over the first 8 hours after administration). The compound also yielded a Ki on rat pancreatic lipase of 1 mM.

On rat pancreatic lipase, `CC(CCCCC(=O)O)[C@H]1CC[C@H]2[C@@H]3CC[C@@H]4C[C@H](O)CC[C@]4(C)[C@H]3C[C@H](O)[C@]12C` (stereo partly drawn) [Compound B, 5-(3α,12α-dihydroxy-5βpregnane-20-yl)pentanoic acid] came in with an inhibition constant Ki of 9 mM.

In general, Ki refers to a measure of affinity in units of concentration, obtained from inhibition or displacement. Read a low Ki as tighter binding.
